Experimental data from patent US20210137934A1, “METHODS OF IDENTIFYING MYC-DRIVEN AND LIPOGENESIS-DEPENDENT NEOPLASMS AND METHODS OF TREATING THE SAME” (The Board of Trustees of the Leland Stanford Junior …, priority 2017, published 2021).
“Also recorded” adds a separate entry of the source.

What was measured:
[1] = system: human RCC tumor derived cell line, 786-0; assay: Human RCC 786-O cell line treated in vitro; assay type: cell-based; settings: 786-0 cell line treated in vitro
Experimental: (§1) Cell culture conditions. P493-6 cells are cultured in Gibco's RPM11640 media under normal culture conditions of 20% O2, 4% CO2, and 37° C. P493 cells are suspension cells, and they are kept at 0.2-1.8 million cells/ml density to avoid confluency. In order to turn off Myc, 1 μg/ml of tetracycline is applied to the media for 48 hours to completely suppress Myc. Mouse-derived renal carcinoma line E28 and human RCC 786-O cell line are cultured for in vitro experiments under normal culture conditions of 20% O2, 4% CO2, and 37° C. 786-O and E28 cells are maintained in Dulbecco's Modified Eagle Medium (DMEM), which is supplemented with 10% fetal bovine serum (FBS), 1% L-glutamine, 1% sodium pyruvate, 1% nonessential amino acids, and Antibiotic-Antimycotic. Trypsin-EDTA is used to passage E28 and 786-O cells. All cell culture reagents are purchased from Gibco® (Thermo Fisher Scientific Inc.).
(§2) Small molecule inhibitors. The small molecule, TOFA (Sigma), diluted in dimethyl sulfoxide (DMSO) to the desired concentrations is added to cell culture medium to achieve inhibition of ACACA. TOFA is an allosteric inhibitor of ACACA, the enzyme which catalyzes the rate-limiting step of fatty acid synthesis. Various concentrations of TOFA are administered to cells in culture over time to assess dose-response suppression of proliferation. […]

PGs and PIs [2] = assay: DESI-MSI lipid profile in human RCC xenograft; assay type: in vivo, mouse
Experimental: (§3) Small molecule inhibitors. The small molecule, TOFA (Sigma), diluted in dimethyl sulfoxide (DMSO) to the desired concentrations is added to cell culture medium to achieve inhibition of ACACA. TOFA is an allosteric inhibitor of ACACA, the enzyme which catalyzes the rate-limiting step of fatty acid synthesis. Various concentrations of TOFA are administered to cells in culture over time to assess dose-response suppression of proliferation. For in vivo treatment of mice, 25 mg/kg TOFA is administered daily by intraperitoneal injections (IP). The stock TOFA is diluted in DMSO to 10 mg/ml, such that the final injected volume is around 50 μl since the mice weigh about 20 g.
(§4) Desorption Electrospray Ionization Mass Spectrometry Imaging (DESI-MSI). DESI-MSI is used for generating two-dimensional chemical maps of various tissues sections in order to assess the lipid profile of an organ. Tissue sections of 16 μm thick are imaged by this method using a lab-built DESI-MSI source coupled to an LTQ-Orbitrap XL mass spectrometer (Thermo Fisher Scientific, MA), and the mass spectra are acquired in negative ion mode using the Orbitrap as the mass analyzer at 60,000 resolving power. […] All tissues are histopathologically evaluated after imaging using standard hematoxylin and eosin (H&E) staining, to ensure a correct interpretation of lipid signals. […]

RCC (E28) cells = assay: In vitro cell proliferation by total live cell counts, E28; assay type: cell-based, mouse; settings: for cell growth / proliferation (total live cell counts): various concentrations
Experimental: as §1, §3
(§5) Cell counting. A volume of cells is removed from culture medium and mixed with an equal volume of 0.4% Trypan blue stain. Then 10 μl hemocytometer for cell counting. Viable cell counts are used as a measure of cell proliferation.

[3] = system: human lymphoma B-cell line (P493-6); assay: In vitro cell proliferation by total live cell counts, P493-6; assay type: cell-based; settings: P493-6 cells, various concentrations
Experimental: as §1, §3, §5

[4] = system: transgenic MYC-induced RCC; assay: Transgenic MYC-induced RCC mouse model, tumor growth (kidney weight and size, histology); assay type: in vivo; settings: 25 mg/kg daily IP
Experimental: as §3

PGs and PIs [5] = assay: DESI-MSI lipid profile in transgenic MYC-induced RCC; assay type: in vivo, mouse
Experimental: as §3, §4

[6] = system: human RCC 786-O xenograft; assay: Human RCC 786-O xenograft in NSG mice; assay type: in vivo, mouse; settings: 25 mg/kg daily IP
Experimental: as §1, §2

T-ALL (4188) cells = assay: In vitro cell growth, 4188; assay type: cell-based, mouse; settings: 4188 T-ALL cells
Experimental: as §3, with “g. Cell counting. A volume of cells is removed from culture medium and mixed with an equal volume of 0.4% Trypan blue stain. Then 10 μl hemocytometer for cell counting. Viable cell counts are used as a measure of cell proliferation.” for “g.”

HCC (EC4) cells = assay: In vitro cell growth, EC4; assay type: cell-based, mouse
Experimental: as §3, with “g. Cell counting. A volume of cells is removed from culture medium and mixed with an equal volume of 0.4% Trypan blue stain. Then 10 μl hemocytometer for cell counting. Viable cell counts are used as a measure of cell proliferation.” for “g.”

Structure (SMILES) | tumor cell response in vitro [1] | PGs and PIs by DESI-MSI (PGs and PIs [2]) | rescue of growth inhibition by addition of oleate (RCC (E28) cells; oleate added) | cell growth / proliferation (total live cell counts) (RCC (E28) cells) | cell growth / proliferation (total live cell counts) [3] | tumor progression / regression, treatment after tumor onset ([4]; treatment at week 2 (15 day MYC on tumor), kidney weight and size, histology) | tumor growth / tumorigenesis, treatment before tumor onset ([4]; treatment from week 0 (day 0 MYC on)) | PGs and PIs by DESI-MSI during tumor initiation and regression (PGs and PIs [5]) | xenograft tumor growth [6] | cell growth (T-ALL (4188) cells) | cell growth (HCC (EC4) cells) | cell growth / proliferation (total live cell counts) ([3]; listed as Cerulenin)
CCCCCCCCCCCCCCOc1ccc(C(=O)O)o1 [TOFA, 5-(tetradecyloxy)-2-furancarboxylic acid] | exhibited tumor regression | block PGs and PIs | partially rescuable; also recorded: partially rescued | growth inhibited in vitro in a dose-dependent manner; also recorded: similar | growth inhibited in vitro in a dose-dependent manner; also recorded: decreased in a dose-dependent manner | regressed; also recorded: induced tumor regression; also recorded: significantly reduces kidney tumor progression | blocked; also recorded: prevented tumor growth; also recorded: completely prevents tumorigenesis | suppressed; also recorded: block PGs and PIs | regresses; also recorded: exhibited tumor regression | – | – | –
C/C=C/C/C=C/CCC(=O)[C@H]1O[C@H]1C(N)=O [cerulenin, Cerulenin] | – | – | – | growth inhibited in vitro in a dose-dependent manner | growth inhibited in vitro in a dose-dependent manner | – | – | – | – | growth inhibited in vitro in a dose-dependent manner | growth inhibited in vitro in a dose-dependent manner | decreased in a dose-dependent manner
